In PubChem BioAssay (NCI):
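Cells were grown in 96-well plates and exposed to each compound for 48 hours at five concentrations; endpoints were interpolated linearly between bracketing concentrations, or set to the highest concentration if not reached. GI50 marks 50% less growth. TGI: total growth inhibition.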

Assays:
Assay in all cases: NCI-60 cell line screen, 48 h
[1] = tested on: BT-549 breast
[2] = tested on: MDA-MB-435
[3] = tested on: HCT-116 colon
[4] = tested on: LOX IMVI melanoma
[5] = tested on: MOLT-4 leukemia
[6] = tested on: PC-3 prostate
[7] = tested on: ACHN renal
[8] = tested on: OVCAR-5 ovarian
[9] = tested on: NCI-H226 lung
[10] = tested on: CCRF-CEM leukemia

| Structure (SMILES) | GI50 [1] | TGI [1] | GI50 [2] | TGI [2] | GI50 [3] | TGI [3] | GI50 [4] | TGI [4] | GI50 [5] | TGI [5] | GI50 [6] | TGI [6] | GI50 [7] | TGI [7] | GI50 [8] | TGI [8] | GI50 [9] | TGI [9] | GI50 [10] | TGI [10] |
| --- | --- | --- | --- | --- | --- | --- | --- | --- | --- | --- | --- | --- | --- | --- | --- | --- | --- | --- | --- | --- |
| COC(=O)c1ccc(NC(=O)c2ccc(NC3=C(Cl)C(=O)N(Cc4ccccc4)C3=O)cc2)cc1 | 16.4 µM | 32.1 µM | 12.3 µM | 27 µM | 3.47 µM | 11.8 µM | 13.3 µM | 26 µM | 13 µM | 25.6 µM | 13.7 µM | 26.6 µM | 17.2 µM | 31 µM | 21.5 µM | 39 µM | 22 µM | 40.6 µM | – | – |
| C(=C\c1ccncc1)/c1ccncc1 | > 100 µM | > 100 µM | > 100 µM | > 100 µM | > 100 µM | > 100 µM | > 100 µM | > 100 µM | > 100 µM | > 100 µM | > 100 µM | > 100 µM | > 100 µM | > 100 µM | > 100 µM | > 100 µM | > 100 µM | > 100 µM | > 100 µM | > 100 µM |
| COc1cc2c3c(n(CCN4CCOCC4)c(=O)c2cc1OC)-c1ccccc1C3=O | > 100 µM | > 100 µM | > 100 µM | > 100 µM | 59.7 µM | > 100 µM | 45.5 µM | > 100 µM | 55.5 µM | > 100 µM | > 100 µM | > 100 µM | 35 µM | > 100 µM | > 100 µM | > 100 µM | > 100 µM | > 100 µM | 19.7 µM | > 100 µM |
| CN(C)CC1C(=O)O[C@H]2[C@H]1CC/C(COC(=O)NCc1ccc(Cn3c(=O)sn(CCCI)c3=O)cc1)=C\CC[C@@]1(C)O[C@@H]21 (stereo not given in full) | 1.84 µM | 7.93 µM | 1.13 µM | 2.73 µM | 0.793 µM | 1.6 µM | 0.913 µM | 1.69 µM | 0.947 µM | 3.43 µM | 0.251 µM | 7.32 µM | 0.861 µM | 1.58 µM | 1.38 µM | 5.04 µM | 7.32 µM | 17.6 µM | 1.46 µM | 7.88 µM |
| COc1cccc2c(SCC(=O)Nc3ccccc3-c3ccccc3NC(=O)CSc3c4ccccc4nc4c(OC)cccc34)c3ccccc3nc12 | – | – | – | – | – | > 100 µM | – | – | – | > 100 µM | – | – | – | > 100 µM | – | > 100 µM | – | > 100 µM | – | > 100 µM |
| CCCS(=O)c1nc(COC(=O)NC)c(COC(=O)NC)n1C (stereo not given) | – | – | – | – | – | > 100 µM | – | > 100 µM | – | > 100 µM | – | – | – | – | – | > 100 µM | – | > 100 µM | – | > 100 µM |
| O=C1C(Cl)=C(Cl)C(=O)N1c1cccc(C(F)(F)F)c1 | – | – | – | – | – | > 100 µM | – | > 100 µM | – | > 86.6 µM | – | – | – | > 100 µM | – | > 100 µM | – | > 100 µM | – | > 85.3 µM |
| CC(=O)c1ccc2c3c1[C@H]1O[C@H]1c1cccc(c1-3)[C@@H]1O[C@H]21 | – | 4.53 µM | – | 4.54 µM | – | 3.87 µM | – | 1.2 µM | – | > 32.6 µM | – | – | – | 3.79 µM | – | 3.68 µM | – | > 88.3 µM | – | 4.2 µM |
| COc1cc([C@@H]2OC(=O)C3C2C(=O)O[C@H]3c2ccc(O)c(OC)c2)ccc1O (stereo not given in full) | – | – | – | – | – | > 100 µM | – | > 100 µM | – | > 100 µM | – | – | – | > 100 µM | – | > 100 µM | – | > 100 µM | – | > 100 µM |
| CCn1cc(C(=O)N/N=C/c2cccs2)c(=O)c2cc(F)c(N3CCNC(C)C3)c(F)c21 (stereo not given) | 12.3 µM | 36.9 µM | 1.78 µM | 3.24 µM | – | – | – | – | – | – | 1.45 µM | 2.84 µM | 1.67 µM | 3.04 µM | 1.59 µM | 2.97 µM | – | – | – | – |
| CC(=O)[CH-]C(=O)c1ccccc1.CC(=O)[CH-]C(=O)c1ccccc1.CC[C@H](/C=C/C(C)[C@H]1CCC2[C@@H]3CC=C4C[C@@H]([O-])CC[C@]4(C)C3CC[C@@]21C)C(C)C.CC[C@H](/C=C/C(C)[C@H]1CCC2[C@@H]3CC=C4C[C@@H]([O-])CC[C@]4(C)C3CC[C@@]21C)C(C)C.Cl.[Ti+4] (stereo not given in full) | – | – | – | – | > 25 µM | > 25 µM | > 25 µM | > 25 µM | > 25 µM | > 25 µM | – | – | > 25 µM | > 25 µM | > 25 µM | > 25 µM | > 25 µM | > 25 µM | > 25 µM | > 25 µM |
| CN(C)N=Nc1cccc(C(N)=O)c1 | – | – | – | – | – | > 100 µM | – | – | – | > 100 µM | – | – | – | > 100 µM | – | – | – | > 100 µM | – | > 100 µM |
| COc1cc2c3c(n([C@@H]4CCOC4)c(=O)c2cc1OC)-c1cc2c(cc1C3=O)OCO2 | 0.0218 µM | > 100 µM | – | – | – | – | – | – | < 0.01 µM | > 100 µM | – | – | – | – | – | – | – | – | < 0.01 µM | > 100 µM |
| O=C1NC2C3CC(OCc4ccccc4)(OCc4ccccc4)C2OC3O1 (stereo not given) | – | – | – | – | – | > 50 µM | – | > 50 µM | – | > 50 µM | – | – | – | – | – | > 50 µM | – | > 50 µM | – | > 50 µM |
| Nn1c(-c2cccc(Cl)c2)nc2ccccc2c1=O | – | – | – | – | – | > 100 µM | – | – | – | > 100 µM | – | – | – | > 100 µM | – | > 100 µM | – | > 100 µM | – | > 100 µM |
| O=C(O)/C(Cl)=C(Cl)/C=N/NC(=O)c1cc2ccccc2cc1O | – | – | – | – | – | > 100 µM | – | – | – | 34.9 µM | – | – | – | > 100 µM | – | 61.5 µM | – | 87.2 µM | – | 51.7 µM |
| COC(=O)c1ccc(C(=O)OC)c2nc3cc(Cl)ccc3nc12 | – | – | – | – | – | > 100 µM | – | > 100 µM | – | > 100 µM | – | – | – | > 100 µM | – | > 100 µM | – | > 100 µM | – | > 100 µM |
| Cc1ccc(C2[C@H]3C(=O)N(c4ccc(Cc5ccc(N6C(=O)[C@@H]7ON(c8ccccc8)C(c8ccc(C)cc8)[C@@H]7C6=O)cc5)cc4)C(=O)[C@H]3ON2c2ccccc2)cc1 (stereo not given in full) | – | – | – | – | – | – | – | > 100 µM | – | > 100 µM | – | – | – | > 100 µM | – | > 100 µM | – | > 100 µM | – | > 100 µM |
| CC(C)N1C(C)[C@@H](c2ccccc2)O[P@@]1(=O)CC1=CCCCC1 (stereo not given in full) | – | – | – | – | – | > 100 µM | – | > 100 µM | – | > 100 µM | – | – | – | > 100 µM | – | > 100 µM | – | > 100 µM | – | > 100 µM |
| O=C1CC(Cc2n[nH]c3c2CCCC3)CC(=O)N1 | – | > 100 µM | – | > 100 µM | – | > 100 µM | – | > 100 µM | – | > 100 µM | – | > 100 µM | – | – | – | > 100 µM | – | > 100 µM | – | > 100 µM |
